Measurements: patent US12145915B1 (priority 2023, dated 2024)
≈ marks a conversion by molar mass, not a printed value.

Columns and labels:
[1] = tested on: Mycobacterium tuberculosis H37Rv (ATCC: 25177); assay: Resazurin Microplate Assay (REMA), MIC against H37Rv strain; type: cell-based; settings: 192 h, read-out: Anti-tubercular activity against Mycobacterium tuberculosis (μg/mL) H37Rv (MIC)

Compound	melting point [°C]	MIC [1] [µg/mL]
COc1cc(/C=N/NC(=O)c2sc(-c3ccc(OCC(C)C)c(C#N)c3)nc2C)ccc1O [KNV-TZL2, (E)-2-(3-Cyano-4-isobutoxyphenyl)-N-(4-hydroxy-3-methoxybenzylidene)-4-methylthiazole-5-carbohydrazide]	230 to 232	16 (≈ 34.4 µM)
Cc1nc(-c2ccc(OCC(C)C)c(C#N)c2)sc1C(=O)N/N=C/c1ccc([N+](=O)[O-])o1	228 to 230	
Cc1nc(-c2ccc(OCC(C)C)c(C#N)c2)sc1C(=O)N/N=C/c1ccc(F)c(Oc2ccccc2)c1 [KNV-TZL1, (E)-2-(3-Cyano-4-isobutoxyphenyl)-N-(4-fluoro-3-phenoxybenzylidene)-4-methylthiazole-5-carbohydrazide]	138 to 140	8 (≈ 15.1 µM)
